Patent US20110105623A1 (Biogenic Innovations, LLC, priority 2009, published 2011)
“Also recorded” adds a separate entry of the source.

Legend:
Candida albicans = test: USP <51> AET in cosmetic cream/composition; type: cell-based; details: for AET microorganism count: 48 hrs-28 days; for Log Reduction from Initial Microorganism Inoculum: 14, 28 Days
Aspergillus niger = test: USP <51> AET in cosmetic cream/composition; type: cell-based; details: 10% MSM in cosmetic cream without preservative, 48 hrs-28 days
[1] = system: Vero (African green monkey kidney) cells; test: Toxicity control for Pre-Treatment test; type: cell-based
Excerpt: (§1) B. Toxicity Control for Pre-Treatment Test.

[2] = system: MRC-5 (Human lung fibroblasts) cells; test: Toxicity control for Pre-Treatment test; type: cell-based
Excerpt: as §1

Chlorella minutissima = test: Algal growth by percent transmittance at 750 nm; type: cell-based
Description: Two species of Chlorella were examined for growth—Chlorella sorokiniana a freshwater species and Chlorella minutissima a marine species. […] Growth was measured on day 0, 1, 2, 3, 4, 5, 6, 7, 8, 9 and 10. […] The following media were purchased from UTEX Culture Collection of Algae: Enriched Salt Water Medium and Volvox Dextrose Medium.
The algae were grown for 48 hours in the appropriate medium. The initial suspension was enumerated for each alga and is referred to as the starting inoculums. Chlorella sorokiniana was at 381 million cells per milliliter and Chlorella minutissima was at 19 million cells per milliliter. One milliliter of the algal solution was placed into 9 mLs of medium and mixed by vortexing. […] The tube of algae and MSM were incubated at room temperature with exposure to sunlight. […] Each dilution of MSM for each organism was set up in and analyzed in triplicate for each time interval measured. The samples were measured by percent transmittance on a UV/VIS spectrophotometer at wavelength 750 nm. The medium stock was tested for percent transmittance background levels at every time interval were measured. The lower percent transmittance indicated a higher growth factor.

[3] = system: Streptococcus Pneumonia (#10341); test: Bacterial viability by bioluminescent ATP assay
[4] = system: ATCC strain 8739 Escherichia coli; test: Bromcresol Purple color change with MSM; type: cell-based
Description: To investigate whether MSM functions as a carrier/transporter, the ability of MSM to transport Bromcresol into the E. coli was evaluated. Bromcresol Purple is an indicator dye that turns yellow in the presence of E. coli bacteria. It is non-toxic to the organism. […] All concentrations were plated out to 10^−7 dilutions to ascertain the log reduction.
Flake OptiMSM was weighed out using a certified Mettler Toledo AG245 balance SN: 1115210833 and aliquoted for each concentration. […] Tubes were cooled to room temperature which was approximately 20° C. All tubes were then spiked with the same dilution of Escherichia coli that gave a level of colony forming units at 6.0×10^6/mL (6.8). The tubes were then incubated at 25° C. Daily observation for color change was performed during the first seven days. The tubes were mixed periodically to ensure that the OptiMSM was well equilibrated at all times. A positive and negative control was ascertained.

Methylsulfonylmethane [MSM]
AET microorganism count (Candida albicans; 10% MSM in Preservative Free Cosmetic Composition #2, 48 hours after inoculation): 9.0 × 10^2 | AET microorganism count (Candida albicans; 10% MSM in Preservative Free Cosmetic Composition #2, 7 days after inoculation): <10 | AET microorganism count (Candida albicans; 10% MSM in cosmetic cream without preservative): <10 | Log Reduction from Initial Microorganism Inoculum (Candida albicans; 10% MSM in preservative-free jojoba cream): 4.3 log | Log Reduction from Initial Microorganism Inoculum (Candida albicans; 10% MSM, Composition #1): 5.3 log | Log Reduction from Initial Microorganism Inoculum (Candida albicans; 10% MSM, Composition #2): 5.3 log | AET microorganism count (Aspergillus niger; 48 hours after inoculation): 8 × 10^3 | AET microorganism count (Aspergillus niger; 14 days after inoculation): 6 × 10^3 | AET microorganism count (Aspergillus niger; 28 days after inoculation): 5 × 10^2 | Test Product Cytotoxicity (CPE) ([1]; 0.5%): 00 | Test Product Cytotoxicity (CPE) ([1]; 1%): 00 | Test Product Cytotoxicity (CPE) ([1]; 2%): 00 | Test Product Cytotoxicity (CPE) ([1]; 3%): 00 | Test Product Cytotoxicity (CPE) ([1]; 4%): 00 | Test Product Cytotoxicity (CPE) ([1]; 5%): 00 | Test Product Cytotoxicity (CPE) ([1]; 6%): 00 | Test Product Cytotoxicity (CPE) ([1]; 7%): 00 | Test Product Cytotoxicity (CPE) ([2]; MRC-5, 0.5%): 00 | Test Product Cytotoxicity (CPE) ([2]; MRC-5, 1%): 00 | Test Product Cytotoxicity (CPE) ([2]; MRC-5, 2%): 00 | Test Product Cytotoxicity (CPE) ([2]; MRC-5, 3%): 00 | Test Product Cytotoxicity (CPE) ([2]; MRC-5, 4%): 00 | Test Product Cytotoxicity (CPE) ([2]; MRC-5, 5%): 00 | Test Product Cytotoxicity (CPE) ([2]; MRC-5, 6%): 00 | Growth, percent transmittance at 750 nm (Chlorella minutissima; MSM 0.5%, Sample Day 0): 93.5% | Growth, percent transmittance at 750 nm (Chlorella minutissima; MSM 0.5%, Sample Day 1): 70.1% | Growth, percent transmittance at 750 nm (Chlorella minutissima; MSM 0.5%, Sample Day 2): 45.4% | Growth, percent transmittance at 750 nm (Chlorella minutissima; MSM 0.5%, Sample Day 3): 32.1% | Growth, percent transmittance at 750 nm (Chlorella minutissima; MSM 0.5%, Sample Day 4): 27.6% | Growth, percent transmittance at 750 nm (Chlorella minutissima; MSM 0.5%, Sample Day 5): 26.6% | Growth, percent transmittance at 750 nm (Chlorella minutissima; MSM 0.5%, Sample Day 6): 25.1% | Growth, percent transmittance at 750 nm (Chlorella minutissima; MSM 0.5%, Sample Day 7): 23.6% | Growth, percent transmittance at 750 nm (Chlorella minutissima; MSM 0.5%, Sample Day 8): 22.8% | Growth, percent transmittance at 750 nm (Chlorella minutissima; MSM 0.5%, Sample Day 9): 20.4% | Growth, percent transmittance at 750 nm (Chlorella minutissima; MSM 0.5%, Sample Day 10): 18.9% | Growth, percent transmittance at 750 nm (Chlorella minutissima; MSM 1.0%, Sample Day 0): 91.1% | Growth, percent transmittance at 750 nm (Chlorella minutissima; MSM 1.0%, Sample Day 1): 80.5% | Growth, percent transmittance at 750 nm (Chlorella minutissima; MSM 1.0%, Sample Day 2): 40.0% | Growth, percent transmittance at 750 nm (Chlorella minutissima; MSM 1.0%, Sample Day 3): 31.0% | Growth, percent transmittance at 750 nm (Chlorella minutissima; MSM 1.0%, Sample Day 4): 27.9% | Growth, percent transmittance at 750 nm (Chlorella minutissima; MSM 1.0%, Sample Day 5): 26.5% | Growth, percent transmittance at 750 nm (Chlorella minutissima; MSM 1.0%, Sample Day 6): 25.4% | Growth, percent transmittance at 750 nm (Chlorella minutissima; MSM 1.0%, Sample Day 7): 24.4% | Growth, percent transmittance at 750 nm (Chlorella minutissima; MSM 1.0%, Sample Day 8): 23.7% | Growth, percent transmittance at 750 nm (Chlorella minutissima; MSM 1.0%, Sample Day 9): 21.0% | Growth, percent transmittance at 750 nm (Chlorella minutissima; MSM 1.0%, Sample Day 10): 19.4% | Growth, percent transmittance at 750 nm (Chlorella minutissima; MSM 5.0%, Sample Day 0): 68.9% | Growth, percent transmittance at 750 nm (Chlorella minutissima; MSM 5.0%, Sample Day 1): 87.4% | Growth, percent transmittance at 750 nm (Chlorella minutissima; MSM 5.0%, Sample Day 2): 76.5% | Growth, percent transmittance at 750 nm (Chlorella minutissima; MSM 5.0%, Sample Day 3): 62.0% | Growth, percent transmittance at 750 nm (Chlorella minutissima; MSM 5.0%, Sample Day 4): 52.9% | Growth, percent transmittance at 750 nm (Chlorella minutissima; MSM 5.0%, Sample Day 5): 52.2% | Growth, percent transmittance at 750 nm (Chlorella minutissima; MSM 5.0%, Sample Day 6): 50.7% | Growth, percent transmittance at 750 nm (Chlorella minutissima; MSM 5.0%, Sample Day 7): 51.0% | Growth, percent transmittance at 750 nm (Chlorella minutissima; MSM 5.0%, Sample Day 8): 51.9% | Growth, percent transmittance at 750 nm (Chlorella minutissima; MSM 5.0%, Sample Day 9): 47.1% | Growth, percent transmittance at 750 nm (Chlorella minutissima; MSM 5.0%, Sample Day 10): 44.1% | Growth, percent transmittance at 750 nm (Chlorella minutissima; MSM 10.0%, Sample Day 0): 49.6% | Growth, percent transmittance at 750 nm (Chlorella minutissima; MSM 10.0%, Sample Day 1): 49.2% | Growth, percent transmittance at 750 nm (Chlorella minutissima; MSM 10.0%, Sample Day 2): 50.8% | Growth, percent transmittance at 750 nm (Chlorella minutissima; MSM 10.0%, Sample Day 3): 51.9% | Growth, percent transmittance at 750 nm (Chlorella minutissima; MSM 10.0%, Sample Day 4): 52.0% | Growth, percent transmittance at 750 nm (Chlorella minutissima; MSM 10.0%, Sample Day 5): 51.9% | Growth, percent transmittance at 750 nm (Chlorella minutissima; MSM 10.0%, Sample Day 6): 54.9% | Growth, percent transmittance at 750 nm (Chlorella minutissima; MSM 10.0%, Sample Day 7): 56.1% | Growth, percent transmittance at 750 nm (Chlorella minutissima; MSM 10.0%, Sample Day 8): 58.6% | Growth, percent transmittance at 750 nm (Chlorella minutissima; MSM 10.0%, Sample Day 9): 41.4% | Growth, percent transmittance at 750 nm (Chlorella minutissima; MSM 10.0%, Sample Day 10): 36.7% | Growth, percent transmittance at 750 nm (Chlorella minutissima; MSM 20.0%, Sample Day 0): 30.0% | Growth, percent transmittance at 750 nm (Chlorella minutissima; MSM 20.0%, Sample Day 1): 33.8% | Growth, percent transmittance at 750 nm (Chlorella minutissima; MSM 20.0%, Sample Day 2): 51.1% | Growth, percent transmittance at 750 nm (Chlorella minutissima; MSM 20.0%, Sample Day 3): 54.8% | Growth, percent transmittance at 750 nm (Chlorella minutissima; MSM 20.0%, Sample Day 4): 57.3% | Growth, percent transmittance at 750 nm (Chlorella minutissima; MSM 20.0%, Sample Day 5): 57.5% | Growth, percent transmittance at 750 nm (Chlorella minutissima; MSM 20.0%, Sample Day 6): 57.4% | Growth, percent transmittance at 750 nm (Chlorella minutissima; MSM 20.0%, Sample Day 7): 57.1% | Growth, percent transmittance at 750 nm (Chlorella minutissima; MSM 20.0%, Sample Day 8): 55.8% | Growth, percent transmittance at 750 nm (Chlorella minutissima; MSM 20.0%, Sample Day 9): 45.1% | Growth, percent transmittance at 750 nm (Chlorella minutissima; MSM 20.0%, Sample Day 10): 30.2% | Growth, percent transmittance at 750 nm (Chlorella minutissima; MSM […], Sample Day 0): 82.8% | Growth, percent transmittance at 750 nm (Chlorella minutissima; MSM […], Sample Day 1): 75.1% | Growth, percent transmittance at 750 nm (Chlorella minutissima; MSM […], Sample Day 2): 59.5% | Growth, percent transmittance at 750 nm (Chlorella minutissima; MSM […], Sample Day 3): 45.4% | Growth, percent transmittance at 750 nm (Chlorella minutissima; MSM […], Sample Day 4): 33.6% | Growth, percent transmittance at 750 nm (Chlorella minutissima; MSM […], Sample Day 5): 32.4% | Growth, percent transmittance at 750 nm (Chlorella minutissima; MSM […], Sample Day 6): 30.0% | Growth, percent transmittance at 750 nm (Chlorella minutissima; MSM […], Sample Day 7): 28.6% | Growth, percent transmittance at 750 nm (Chlorella minutissima; MSM […], Sample Day 8): 27.7% | Growth, percent transmittance at 750 nm (Chlorella minutissima; MSM […], Sample Day 9): 23.3% | Growth, percent transmittance at 750 nm (Chlorella minutissima; MSM […], Sample Day 10): 21.1% | IC50 [3]: 15.97% | reduced viability by ([3]; 5% MSM alone): approximately 5% | color change of the broth ([4]; 5-7% MSM, Day one): color change of the broth to yellow | color change of the broth ([4]; 8% MSM, Day one, Day three): slight clearing of color; also recorded: turning to the typical yellow color | color change of the broth ([4]; 9% MSM, Day 7): turning to a yellow color | color change of the broth ([4]; 10%-16% MSM, Day 7, 14, 30): No color change; also recorded: no signs of change | organism recovery, streaked on MacConkey agar ([4]; concentration tubes 10%-16% MSM, 72 hour incubation): No organisms were observed
